Laboratory results reported in article PMC8509831 (International Journal of Molecular Sciences, 2021).
Read-outs that look alike come from different tables or passages of the source. Marks after values point to notes of the source that are not given here.

Assays:
COX-1 = target: T1, COX-1 (Ovis aries, UniProt P05979); assay: COX-1 enzyme inhibitory assay (COX inhibitor screening kit); format: biochemical
T1 construct: purchased Cayman Chemicals 560131
T1 sequence (P05979 25-600): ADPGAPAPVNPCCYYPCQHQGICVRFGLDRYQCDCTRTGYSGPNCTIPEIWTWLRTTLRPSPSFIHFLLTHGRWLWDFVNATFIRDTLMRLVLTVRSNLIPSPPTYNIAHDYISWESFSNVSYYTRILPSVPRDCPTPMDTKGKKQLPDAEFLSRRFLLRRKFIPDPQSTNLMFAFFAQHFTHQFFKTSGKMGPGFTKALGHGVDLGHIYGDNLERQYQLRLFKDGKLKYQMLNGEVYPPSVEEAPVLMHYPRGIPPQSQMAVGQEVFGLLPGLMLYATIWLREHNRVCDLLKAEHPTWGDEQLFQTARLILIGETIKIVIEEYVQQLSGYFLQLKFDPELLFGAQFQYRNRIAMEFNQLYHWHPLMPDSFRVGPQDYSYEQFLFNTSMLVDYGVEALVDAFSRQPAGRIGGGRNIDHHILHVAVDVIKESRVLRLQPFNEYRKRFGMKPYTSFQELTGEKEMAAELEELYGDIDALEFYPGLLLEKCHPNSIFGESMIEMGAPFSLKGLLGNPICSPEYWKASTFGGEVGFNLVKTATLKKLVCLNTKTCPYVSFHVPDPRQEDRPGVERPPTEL

LOX-5 = assay: 5-LOX enzyme inhibitory assay (polarographic, Clark oxygen electrode); format: biochemical, potato; conditions: mean ± SD, n = 3
Procedure: The IC50 was determined for the studied compounds and reference standards. […] Furthermore, 5-LOX enzyme was extracted from potato tubers as described previously. […] The enzyme activity was expressed as moles of oxygen consumed per min/mg protein, as 5-LOX adds oxygen to the substrate, implying that the rate of decrease of oxygen in the reaction mixture was intrinsic to the measurement of enzyme activity. The results were expressed as IC50 (μg/mL) for the sample and reference compounds in triplicate.

WST cell viability assay = format: cell-based, human; conditions: human, HeLa cells, HeLa
Procedure: (§1) The viability of HeLa cells treated with […] (0-100 μg/mL, concentrations) was examined for 24-72 h using a colorimetric WST assay. Briefly, HeLa cells were cultured in a clear-bottom 96-well plate at a density of 9 × 10^3 cells/well in MEM supplemented with 10% FBS and 1% penicillin-streptomycin in a 5% CO2 incubator and incubated for 24 h at 37 °C. The […] stock solution was prepared in DMSO and stored at -20 °C. Subsequently, the cells were exposed to various concentrations of […] (0-100 μg/mL) over a period of 24-72 h. The cell proliferation reagent WST-1 solution (10 μL/well) was added to the plates, followed by incubation in 5% CO2 for 2 h at 37 °C in the dark. Thereafter, the plates were shaken thoroughly for 1 min on a shaker at RT, and the absorbance of the reporter substrate was measured at 450 nm and 600 nm (reference wavelength 650 nm) using a microplate reader coupled with the Gen5 software (BioTek, Winooski, VT, USA).

HeLa cells [1] = assay: WST cell viability assay; format: cell-based, human; conditions: for Cell Viability (%): HeLa, 40 μg/mL, listed as Q3G
Procedure: as §1

HeLa cells [2] = assay: Cell cycle analysis by PI flow cytometry; format: cell-based, human; conditions: 30 μg/mL, listed as Q3G
Procedure: Cell cycle analysis was performed in HeLa cells as previously described. Cells were seeded into six-well plates at a density of 2 × 10^5 cells per well and treated with […] (30 μg/mL) for 12-48 h. Thereafter, the cells were harvested, washed with PBS, and fixed at 4 °C for 1 h in a 70% PBS-ethanol solution. Cells were subsequently washed twice with PBS, and 50 μL of a 100 μg/mL stock of DNase-free RNase was added to ensure that only DNA, not RNA, was stained. Cell pellets were stained with a fluorescent probe PI (50 μg/mL) and incubated at RT for 30 min, and then analyzed using a NovoCyte 1000 benchtop flow cytometer (ACEA Biosciences, San Diego, CA, USA).

HeLa cells [3] = assay: Annexin V-FITC/PI apoptosis assay by flow cytometry; format: cell-based, human
Procedure: Annexin V-FITC/propidium iodide (PI) assay was performed as per the manufacturer's instructions (Sino Biological, Beijing, China). Briefly, HeLa cells (2 × 10^5 cells/well) in 6-well culture plates were treated with […] (30 μg/mL) or with DMSO as a vehicle control for 24 and 48 h. Subsequently, floating as well as adherent cells were collected and washed with PBS. The cells were centrifuged at 400× g for 5 min at RT and resuspended in binding buffer containing Annexin V-FITC, along with PI. In each experiment, 1 × 10^4 cells were analyzed for annexin V-FITC/PI staining after incubation for 20 min at RT in the dark.

HeLa cells [4] = assay: Intracellular ROS production (DCFDA fluorescence); format: cell-based, human; conditions: 30 μg/mL
Procedure: Cellular ROS production was analyzed as previously described with minor modifications to the original methodology. Briefly, cells were seeded at a density of 1.5 × 10^4/well in a black, clear bottom 96-well plate. The following day, cells were treated with […] (30 μg/mL) or DMSO as a vehicle control for 12-48 h. Forty-five minutes prior to completion of the treatment, 100 μL of 2× H2DCFDA dilution was overlayed in each well and incubated in 5% CO2 with DCFDA as well as the compounds for 30 min at 37 °C. The fluorescence in each well was assessed on a microplate reader at the end point in the presence of compounds and DCFDA with Ex/Em = 485/535 nm wavelengths.

CDK2 = assay: Western blot, CDK2 expression; format: cell-based, human; conditions: HeLa, 30 μg/mL, 12-48 h
Procedure: (§2) HeLa cells (1.5 × 10^6 cells/well) were seeded in six-well plates and cultured in MEM supplemented with 10% FBS for 24 h. Subsequently, the cells were treated with the indicated amounts of Q3G or DMSO as a vehicle control for 12–48 h. Following this, the cells were collected, and total lysates from treated cells were prepared in RIPA buffer for 15 min. Protein concentration was determined using a Bio-Rad protein assay kit with BSA [63]. […] Membranes were treated with PBS containing 0.05% Tween 20 and 5% nonfat dry milk to block nonspecific binding at 15–25 °C and were incubated overnight at 4 °C with the following specific primary antibodies: caspase-9/-3, Bax, Bcl-2, Bid, CDK2, and MuD. β-Actin was used as an invariant control for equal loading of total proteins. After incubation with the primary antibody, the membranes were incubated with the appropriate secondary antibodies conjugated to horseradish peroxidase. Finally, immunoreactive bands were visualized using an enhanced chemiluminescence substrate (Bio-Rad).

Bcl-2 = assay: Western blot, Bcl-2 expression; format: cell-based, human; conditions: HeLa, 30 μg/mL, 12, 24, and 48 h
Procedure: as §2

Bax = assay: Western blot, Bax expression; format: cell-based, human; conditions: HeLa, 30 μg/mL, 12, 24, and 48 h
Procedure: as §2

caspase-9 = assay: Western blot, caspase-9 expression; format: cell-based, human; conditions: HeLa, 30 μg/mL, 12, 24, and 48 h
Procedure: as §2

MuD = assay: Western blot, MuD expression; format: cell-based, human; conditions: HeLa, 30 μg/mL, 12, 24, and 48 h
Procedure: as §2

COX-2 = target: T2, COX-2 (Homo sapiens, UniProt P35354); assay: COX-2 enzyme inhibitory assay (COX inhibitor screening kit); format: biochemical; conditions: mean ± SD, n = 3; read-out: Enzyme Inhibitory Effect IC50 COX-2 (converted)
T2 construct: purchased Cayman Chemicals 560131
T2 sequence (P35354 18-604): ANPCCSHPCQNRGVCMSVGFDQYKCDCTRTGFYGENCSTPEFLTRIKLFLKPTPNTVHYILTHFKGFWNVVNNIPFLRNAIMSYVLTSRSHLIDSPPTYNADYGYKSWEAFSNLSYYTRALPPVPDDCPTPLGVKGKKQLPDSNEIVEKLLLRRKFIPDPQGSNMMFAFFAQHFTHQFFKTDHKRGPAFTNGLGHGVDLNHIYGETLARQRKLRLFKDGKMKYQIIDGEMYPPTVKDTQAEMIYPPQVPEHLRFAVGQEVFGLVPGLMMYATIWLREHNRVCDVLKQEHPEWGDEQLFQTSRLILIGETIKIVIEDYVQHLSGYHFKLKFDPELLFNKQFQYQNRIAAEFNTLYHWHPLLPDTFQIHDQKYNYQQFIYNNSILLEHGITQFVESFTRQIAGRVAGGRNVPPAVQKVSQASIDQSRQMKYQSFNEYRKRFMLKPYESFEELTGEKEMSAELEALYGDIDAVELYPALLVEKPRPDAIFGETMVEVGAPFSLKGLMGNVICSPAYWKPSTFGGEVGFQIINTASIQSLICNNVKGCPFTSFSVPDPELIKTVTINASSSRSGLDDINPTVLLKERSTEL

[5] = mean ± SD, n = 3, read-out: Enzyme Inhibitory Effect IC50 COX-1 (converted)

Oc1cc(O)c2c(c1)O[C@H](c1ccc(O)c(O)c1)[C@H](O)C2 [Epicatechin]
IC50 (COX-1): 63 µM
Enzyme Inhibitory Effect IC50 LOX-5 (LOX-5): 10.09 ± 1.03 ^f μg/mL

O=c1c(O[C@@H]2O[C@H](CO)[C@@H](O)[C@H](O)[C@H]2O)c(-c2ccc(O)c(O)c2)oc2cc(O)cc(O)c12 [Quercetin-3-glucoside, quercetin 3-β-D-glucoside]
IC50 (COX-1): 7.8 µM
Enzyme Inhibitory Effect IC50 LOX-5 (LOX-5): 2.31 ± 0.32 ^b μg/mL
viability at 48 h, 0.1 μg/mL (WST cell viability assay; 0.1 μg/mL, 48 h): 114.98 ± 0.05%
viability at 48 h, 1 μg/mL (WST cell viability assay; 1 μg/mL, 48 h): 103.3 ± 0.12%
viability at 48 h, 10 μg/mL (WST cell viability assay; 10 μg/mL, 48 h): 116.1 ± 0.01%
viability at 24 h, 40 μg/mL (WST cell viability assay; 40 μg/mL, 24 h): 83%
viability at 48 h, 40 μg/mL (WST cell viability assay; 40 μg/mL, 48 h): 36%
viability at 72 h, 40 μg/mL (WST cell viability assay; 40 μg/mL, 72 h): 18%
viability at 48 h, 50 μg/mL (WST cell viability assay; 50 μg/mL, 48 h): 29.6%
viability at 48 h, 100 μg/mL (WST cell viability assay; 100 μg/mL, 48 h): 41.81 ± 0.01%
concentrations with significant growth inhibition (HeLa cells [1]; HeLa cells, 48 h): higher than 10 µg/mL
Cell Viability (%) (HeLa cells [1]; 24 h): 83.30 ± 4.05%
Cell Viability (%) (HeLa cells [1]; 48 h): 36.27 ± 1.38%
Cell Viability (%) (HeLa cells [1]; 72 h): 17.97 ± 1.42%
cells in S phase (HeLa cells [2]; 24 h): ~56%
cells in S phase (HeLa cells [2]; 48 h): ~63%
cells in early apoptosis (HeLa cells [3]; 30 μg/mL, 48 h): Approximately 20%
cells in the late apoptosis phase (HeLa cells [3]; 30 μg/mL, 48 h): ~35%
difference in apoptosis (early and late phase) compared with the control cells (HeLa cells [3]; 24 h of treatment): No significant difference
increase in the number of apoptotic cells (Annexin V-positive cells) (HeLa cells [3]; after 48 h compared to after 24 h of treatment): 16–22%
ROS level higher than the control group (HeLa cells [4]; 12 h): approximately 6 fold
ROS level higher than the control group (HeLa cells [4]; 24 h): ~12 fold
protein expression of CDK2 (CDK2): decreasing
level of anti-apoptotic protein Bcl-2 (Bcl-2): reduced
level of Bax (Bax): increase
expression of the initiator caspase, caspase-9 (caspase-9): reduced
MuD expression (MuD): markedly reduced

O=C(CCc1ccc(O)cc1)c1c(O)cc(O)cc1O [Phloretin]
IC50 (COX-1; [5]): 91.7 µM
IC50 (COX-2): 121 µM
Enzyme Inhibitory Effect IC50 LOX-5 (LOX-5): 16.86 ± 1.22 ^h μg/mL

O=C(O)/C=C/c1ccc(O)cc1 [Coumaric acid]
IC50 (COX-1; [5]): 55.4 µM
IC50 (COX-2): 93.2 µM
Enzyme Inhibitory Effect IC50 LOX-5 (LOX-5): 7.96 ± 0.76 ^d μg/mL

O=c1c(O)c(-c2ccc(O)c(O)c2)oc2cc(O)cc(O)c12 [Quercetin]
IC50 (COX-1; [5]): 20.2 µM
IC50 (COX-2): 37.4 µM

O=C(/C=C/c1ccc(O)c(O)c1)O[C@@H]1C[C@](O)(C(=O)O)C[C@@H](O)[C@H]1O [Chlorogenic acid]
IC50 (COX-1; [5]): 39.7 µM
IC50 (COX-2): 75.3 µM
Enzyme Inhibitory Effect IC50 LOX-5 (LOX-5): 9.98 ± 0.94 ^e μg/mL

O=C(O)/C=C/c1ccc(O)c(O)c1 [Caffeic acid]
IC50 (COX-1; [5]): 113 µM
Enzyme Inhibitory Effect IC50 LOX-5 (LOX-5): 12.26 ± 0.91 ^g μg/mL

O=C(CCc1ccc(O)cc1)c1c(O)cc(O)cc1O[C@@H]1O[C@H](CO)[C@@H](O)[C@H](O)[C@H]1O [Phloridzin]
IC50 (COX-1; [5]): 65.6 µM
IC50 (COX-2): 83 µM
Enzyme Inhibitory Effect IC50 LOX-5 (LOX-5): 18.98 ± 0.85 ^i μg/mL
